Source: ChEMBL document CHEMBL1142363, “Rhodanine derivatives as novel inhibitors of PDE4” (Bioorg Med Chem Lett, 2008)
One block for each molecule: values may come before it. Activity calls are given as the source filed them. No cut-off for these calls is given here.

Columns and labels:
[1] = molecular target: 3',5'-cyclic-AMP phosphodiesterase 4B (Homo sapiens, UniProt Q07343); assay: Inhibition of PDE4B
[2] = molecular target: cGMP-inhibited 3',5'-cyclic phosphodiesterase 3A (Homo sapiens, UniProt Q14432); assay: Inhibition of PDE3A
cGMP-inhibited 3',5'-cyclic phosphodiesterase 3A, sequence (Q14432 whole entry): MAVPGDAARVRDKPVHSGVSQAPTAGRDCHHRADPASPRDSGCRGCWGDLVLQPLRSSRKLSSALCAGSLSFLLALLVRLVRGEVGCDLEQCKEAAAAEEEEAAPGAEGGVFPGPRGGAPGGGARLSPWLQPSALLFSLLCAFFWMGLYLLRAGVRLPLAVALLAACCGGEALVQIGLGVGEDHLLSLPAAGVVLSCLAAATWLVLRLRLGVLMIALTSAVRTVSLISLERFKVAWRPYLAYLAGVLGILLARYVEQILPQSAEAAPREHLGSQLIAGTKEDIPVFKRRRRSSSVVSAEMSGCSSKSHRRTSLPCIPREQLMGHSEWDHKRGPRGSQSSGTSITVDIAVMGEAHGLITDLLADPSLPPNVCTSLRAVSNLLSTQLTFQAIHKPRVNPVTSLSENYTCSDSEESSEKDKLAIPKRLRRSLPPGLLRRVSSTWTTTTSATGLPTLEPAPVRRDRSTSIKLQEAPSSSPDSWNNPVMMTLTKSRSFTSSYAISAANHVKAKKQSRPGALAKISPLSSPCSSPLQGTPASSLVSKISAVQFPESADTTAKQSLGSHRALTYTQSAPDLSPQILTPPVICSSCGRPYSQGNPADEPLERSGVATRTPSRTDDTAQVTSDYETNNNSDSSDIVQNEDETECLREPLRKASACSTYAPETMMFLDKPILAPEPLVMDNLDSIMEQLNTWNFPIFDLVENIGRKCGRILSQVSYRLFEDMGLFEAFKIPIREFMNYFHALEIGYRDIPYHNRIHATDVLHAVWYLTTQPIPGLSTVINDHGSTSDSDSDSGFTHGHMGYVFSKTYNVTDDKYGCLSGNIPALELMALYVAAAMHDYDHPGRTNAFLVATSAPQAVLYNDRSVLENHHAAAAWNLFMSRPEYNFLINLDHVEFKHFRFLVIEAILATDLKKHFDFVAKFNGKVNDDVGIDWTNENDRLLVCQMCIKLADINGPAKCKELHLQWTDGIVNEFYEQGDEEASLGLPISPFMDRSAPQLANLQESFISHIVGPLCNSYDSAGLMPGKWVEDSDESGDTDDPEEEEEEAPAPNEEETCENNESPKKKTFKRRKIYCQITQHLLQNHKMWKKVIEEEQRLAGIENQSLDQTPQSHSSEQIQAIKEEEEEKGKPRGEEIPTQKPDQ

3',5'-cyclic-AMP phosphodiesterase 4B, sequence (Q07343 whole entry): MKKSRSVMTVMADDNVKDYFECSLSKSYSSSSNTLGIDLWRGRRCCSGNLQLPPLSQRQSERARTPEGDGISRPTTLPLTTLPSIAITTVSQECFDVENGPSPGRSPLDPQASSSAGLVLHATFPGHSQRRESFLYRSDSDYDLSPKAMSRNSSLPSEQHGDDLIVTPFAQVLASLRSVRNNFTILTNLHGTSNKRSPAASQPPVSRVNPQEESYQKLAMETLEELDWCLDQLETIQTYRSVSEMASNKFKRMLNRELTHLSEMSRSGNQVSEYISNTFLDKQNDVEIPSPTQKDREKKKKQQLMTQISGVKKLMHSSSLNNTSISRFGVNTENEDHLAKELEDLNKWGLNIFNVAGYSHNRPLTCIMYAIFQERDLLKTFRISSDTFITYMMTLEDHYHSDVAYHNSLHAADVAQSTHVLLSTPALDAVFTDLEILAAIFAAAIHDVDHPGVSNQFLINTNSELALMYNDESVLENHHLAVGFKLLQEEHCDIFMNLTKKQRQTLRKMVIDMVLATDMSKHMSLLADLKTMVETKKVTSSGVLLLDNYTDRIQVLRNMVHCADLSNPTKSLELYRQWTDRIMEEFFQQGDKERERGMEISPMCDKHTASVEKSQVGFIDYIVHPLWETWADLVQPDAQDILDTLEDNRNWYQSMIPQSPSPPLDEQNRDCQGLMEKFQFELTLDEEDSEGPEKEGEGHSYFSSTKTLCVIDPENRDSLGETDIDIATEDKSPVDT

Structure (SMILES): COc1cc(/C=C2\SC(=S)NC2=O)cc(OC)c1OC
IC50 [1]: 64.8 µM

Structure (SMILES): COc1ccc(/C=C2\SC(=O)N(Cc3ccccc3)C2=O)cc1OC1CCCC1
Activity [1]: inactive

Structure (SMILES): O=C1NC(=S)S/C1=C\c1ccc(O)c(O)c1
Activity [1]: inactive

Structure (SMILES): C=CCOc1cc(/C=C2\SC(=S)NC2=O)ccc1OC
IC50 [1]: 3.08 µM
Activity [2]: inactive

Structure (SMILES): CCOc1ccc(/C=C2\SC(=S)NC2=O)cc1OCC
IC50 [1]: 6.51 µM
IC50 [2]: 80 µM

Structure (SMILES): COc1ccc(/C=C2\SC(=N)NC2=O)cc1OC1CCCC1 [PSEUDOTHIOHYDANTOIN]
IC50 [1]: 0.31 µM
Activity [2]: inactive

Structure (SMILES): COc1ccc(/C=C2\SC(=O)NC2=O)cc1OC
IC50 [1]: 14.1 µM
Activity [2]: inactive

Structure (SMILES): COc1ccc(/C=C2\SC(=S)NC2=O)cc1OC1CCCC1
IC50 [1]: 0.89 µM
IC50 [2]: 10.8 µM

Structure (SMILES): COc1ccc(/C=C2\SC(=O)NC2=O)cc1OC1CCCC1
IC50 [1]: 1.09 µM
Activity [2]: inactive

Structure (SMILES): COc1cccc(/C=C2\SC(=S)NC2=O)c1
Activity [1]: inactive

Structure (SMILES): COc1cccc(/C=C2\SC(=S)NC2=O)c1OC
IC50 [1]: 54.7 µM

Structure (SMILES): CCOc1ccc(/C=C2\SC(=S)NC2=O)cc1OC1CCCC1
IC50 [1]: 1.85 µM
IC50 [2]: 25 µM

Structure (SMILES): COc1ccc(C2CNC(=O)C2)cc1OC1CCCC1 (stereo not drawn)
Activity [2]: inactive

Structure (SMILES): O=C1NC(=S)S/C1=C\c1ccc2c(c1)OCO2
Activity [1]: inactive

Structure (SMILES): COc1ccc(/C=C2\SC(=S)NC2=O)cc1OC1CCCCC1
IC50 [1]: 1.94 µM
Activity [2]: inactive

Structure (SMILES): COc1ccc(/C=C2\SC(=S)NC2=O)cc1
Activity [1]: inactive

Structure (SMILES): COc1cc(/C=C2\SC(=S)NC2=O)ccc1OC1CCCC1
IC50 [1]: 30.4 µM
IC50 [2]: 28.5 µM

Structure (SMILES): COc1ccc(/C=C2\CCNC2=O)cc1OC1CCCC1
IC50 [1]: 4.01 µM
Activity [2]: inactive

Structure (SMILES): COc1ccc(/C=C2\SC(=S)NC2=O)cc1OCc1ccccc1
Activity [1]: inactive

Continued, values first:

Activity [1]: inactive
Structure (SMILES): C=CCN1C(=O)/C(=C/c2ccc(OC)c(OC)c2)SC1=S

IC50 [1]: 0.74 µM
Activity [2]: inactive
Structure (SMILES): CCN1C(=O)/C(=C/c2ccc(O)c(OC)c2)SC1=S

IC50 [1]: 4.13 µM
Activity [2]: inactive
Structure (SMILES): C=CCN1C(=O)/C(=C/c2ccc(OC)c(OC3CCCC3)c2)SC1=S

IC50 [1]: 3.07 µM
Activity [2]: inactive
Structure (SMILES): COc1ccc(/C=C2\SC(=S)N(CC(=O)O)C2=O)cc1OC1CCCC1

IC50 [1]: 11.2 µM
Activity [2]: inactive
Structure (SMILES): CCN1C(=O)/C(=C/c2ccc(OC)c(O)c2)SC1=S

IC50 [1]: 17.9 µM
IC50 [2]: 10.5 µM
Structure (SMILES): COc1ccc(/C=C2\SC(=S)NC2=O)cc1OC (stereo in doubt; 2a)

Activity [1]: inactive
Structure (SMILES): COc1ccc(/C=C2\SC(=S)N(CC(=O)O)C2=O)cc1OC

Activity [2]: inactive
Structure (SMILES): COc1ccc(/C=C2\SC(=S)NC2=O)cc1OC (stereo in doubt; 10a) [listing 1 of 2 here]

Activity [1]: inactive
Structure (SMILES): COc1ccc(/C=C2\SC(=S)N(C)C2=O)cc1OC

IC50 [1]: 28.3 µM
Structure (SMILES): COc1ccc(/C=C2\SC(=S)NC2=O)cc1OC (stereo in doubt; 10a) [listing 2 of 2 here]

Activity [1]: inactive
Structure (SMILES): CCN1C(=O)/C(=C/c2ccc(OC)c(OC)c2)SC1=S

IC50 [1]: 2.87 µM
Activity [2]: inactive
Structure (SMILES): COc1ccc(/C=C2\SC(=S)N(C)C2=O)cc1OC1CCCC1

Activity [1]: inactive
Structure (SMILES): COc1ccc(/C=C2\SC(=S)NC2=O)cc1O

IC50 [1]: 6.91 µM
IC50 [2]: 9.46 µM
Structure (SMILES): CCOc1ccc(/C=C2\SC(=S)NC2=O)cc1OC

IC50 [1]: 5.3 µM
IC50 [2]: 39.8 µM
Structure (SMILES): CCOc1cc(/C=C2\SC(=S)NC2=O)ccc1OC

Activity [1]: inactive
Structure (SMILES): COc1cc(/C=C2\SC(=S)NC2=O)ccc1O
